Measured values: patent US20040033967A1, “Alkylated hexitol nucleoside analogues and oligomers thereof” (priority 2000, published 2004)

Key:
Assay type in all cases: binding
HNA complement = test: Tm of hexameric hexitol sequences hybridised with HNA complement; details: hexamers
Excerpt: (§1) Hybridisation is the sequence specific base pair hydrogen bonding of bases of the oligonucleotide to bases of target RNA or DNA Such base pairs are said to be complementary to one another. In determining the extent of hybridization of an oligonucleotide to a complementary nucleic acid, the relative ability of an oligonucleotide to bind to the complementary nucleic acid may be compared by determining the melting temperature of a particular hybridisation complex. The melting temperature (Tm), a characteristic physical property of double helices, denotes the temperature in degrees centigrade, at which 50% helical (hybridized) versus coil (unhybridized) forms are present. Tm is measured by using the UV spectrum to determine the formation and breakdown (melting) of the hybridisation complex. Base stacking which occurs during hybridisation, is accompanied by a reduction in UV absorption (hypochromicity). Consequently, a reduction […]. The higher the Tm, the greater the strength of the bonds between the strands.
As an example a study with pyrimidine hexamers was done as depicted in Table 2. […]

RNA complement = test: Tm of hexameric hexitol sequences hybridised with RNA complement; details: hexamers
Excerpt: as §1
However, this increase is less pronounced than the increase in thermal stability obtained by modifying the nucleobase with a methyl substituent in the 5-position (ΔTm=+1.1° C./modification), (compare entry A and D). […]

complementary RNA = test: Thermal stability of octameric HNA sequences versus RNA; details: octamers versus RNA, entries C and D
Excerpt: as §1, with “strands. The results in Table 3 confirm the results of Table 2 (example 35). […] The effect is however less than for the duplexes containing ANA or those containing the 5-methyl modification (entry E with a ΔTm/modification=1° C. and C with ΔTm/modification=2° C., respectively). […]” for “strands.”

Row | SMILES | ΔTm compared to the unmodified HNA:HNA duplex (HNA complement; complementary HNA, Table 2) | ΔTm compared to HNA, pairing with hexitol oligonucleotides (HNA complement; hexitol (HNA, ANA) complements) | ΔTm compared to HNA, pairing with RNA sequences (RNA complement) | increase in Tm compared with the hexitol T reference (complementary RNA) [°C]
1 | CO[C@@H]1[C@H](O)[C@@H](CO)OC[C@H]1n1ccc(=O)[nH]c1=O [1.1, 1,5-anhydro-3-O-methyl-2-(uracil-1-yl)-2-deoxy-altro-hexitol] | +0.6 ° C./modification | – | – | –
2 | COC1O[C@H](CO)[C@@H](O)C[C@@H]1n1cc(C)c(=O)[nH]c1=O (stereo partly drawn) [2.2, Methyl 2-(thymin-1-yl)-2,3-dideoxy-D-arabino-hexopyranoside] | – | ≈ +0.8 ° C./modification | ≈ +0.3 ° C./modification | 1.6
